Data: patent publication US9079919B2 (HOFFMANN-LA ROCHE INC., priority 2011, dated 2015)
pIC50: −log10 of the molar value. Counter-ions that a name gives are not always drawn.

Key:
Format in all cases: cell-based
BACE1 [1] = target: T1, BACE1 (Homo sapiens, UniProt P56817); test: Cellular Aβ-lowering assay b) (Abeta 40 AlphaLISA Assay); details: cellular assay b): HEK293 APP cells, Aβ40 in supernatant by AlphaLISA after 18-20 hrs; read-out: BACE1 cell act. Aβ40 IC50
T1 construct: Human HEK293 cells which are stably transfected with a vector expressing a cDNA of the human APP wt gene (APP695); endogenous in cells; host or cells: HEK293 cells stably transfected with human APP695 (wt)
Description: b) Alternatively, the Abeta 40 AlphaLISA Assay can be used. The HEK293 APP cells were seeded in 96 well Microtiter plates in cell culture medium (Iscove's, plus 10% (v/v) fetal bovine serum, penicillin/streptomycin) to about 80% confluency and the compounds were added at a 3× concentration in 1/3 volume of culture medium (final DMSO concentration was kept at 1% v/v). After 18-20 hrs incubation at 37° C. and 5% CO2 in a humidified incubator, the culture supernatants were harvested for the determination of Aβ 40 concentrations using Perkin-Elmer Human Amyloid beta 1-40 (high specificity) Kit (Cat#AL275C).
In a Perkin-Elmer White Optiplate-384 (Cat#6007290), 2 ul culture supernatants were combined with 2 μl of a 10× AlphaLISA Anti-hAβ Acceptor beads+Biotinylated Antibody Anti-Aβ 1-40 Mix (50 μg/mL/5 nM). After 1 hour room temperature incubation, 16 μl of a 1.25× preparation of Streptavidin (SA) Donor beads (25 μg/mL) were added and incubated for 30 minutes in the Dark. Light Emission at 615 nm was then recorded using EnVision-Alpha Reader. Levels of Aβ 40 in the culture supernatants were calculated as percentage of maximum signal (cells treated with 1% DMSO without inhibitor). The IC50 values were calculated using the Excel XLfit software.

BACE2 = target: T2, BACE2 (Rattus norvegicus, UniProt Q6IE75); test: Assay for BACE inhibition by measuring cellular TMEM27 cleavage; details: INS-TMEM27 cells (INS1e-derived), shed human TMEM27 by ELISA; read-out: BACE2 cell act. IC50
T2 construct: endogenous cellular BACE2 in the Ins1e rat cell line; endogenous in cells; host or cells: INS-TMEM27 (INS1e-derived rat cell line with doxycycline-inducible full-length human TMEM27)
T2 sequence (Q6IE75 63-514): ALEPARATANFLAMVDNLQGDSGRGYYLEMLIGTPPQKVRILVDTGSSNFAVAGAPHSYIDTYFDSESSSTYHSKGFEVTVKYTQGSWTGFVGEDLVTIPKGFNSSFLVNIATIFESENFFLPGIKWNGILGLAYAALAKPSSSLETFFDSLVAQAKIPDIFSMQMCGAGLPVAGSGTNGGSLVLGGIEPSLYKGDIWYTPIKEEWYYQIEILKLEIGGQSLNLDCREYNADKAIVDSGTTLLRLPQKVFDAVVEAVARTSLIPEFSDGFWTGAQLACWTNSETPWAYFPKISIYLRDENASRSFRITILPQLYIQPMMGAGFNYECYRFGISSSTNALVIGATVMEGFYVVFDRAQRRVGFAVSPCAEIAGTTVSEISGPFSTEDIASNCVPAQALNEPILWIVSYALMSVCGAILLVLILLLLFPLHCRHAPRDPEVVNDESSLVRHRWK
Text: The assay uses the principle of inhibition of human TMEM27 cleavage by endogenous cellular BACE2 in the Ins1e rat cell line and shedding from the cell surface into the culture medium, followed by detection in an ELISA assay. Inhibition of BACE2 prevents the cleavage and shedding in a dose-dependent manner.
The stable cell line “INS-TMEM27” represents an INS1e-derived cell line with inducible expression (using the TetOn system) of full-length hTMEM27 in a doxycycline-dependent manner. The cells are cultured throughout the experiment in RPMI1640+ Glutamax (Invitrogen) Penicillin/Streptomycin, 10% Fetal bovine serum, […], […], 100 micrograms/ml G418 and 100 microgram/ml hygromycin and are grown inadherent culture at 37° C. in a standard CO2 cell culture incubator.
INS-TMEM27 cells are seeded in 96-well plates. After 2 days in culture, BACE2 inhibitor is added in a range of concentrations as required by the assay and after a further two hours, doxycycline is added to a final concentration of 500 ng/ml. The cells are incubated for a further 46 hours and the supernatant harvested for detection of shed TMEM27.
An ELISA assay (using a pair of mouse anti-human-TMEM27 antibodies, raised against the extracellular domain of TMEM27) is used for detection of TMEM27 in the culture medium. An EC50 for BACE2 inhibition is calculated using the ELISA readout for each inhibitor concentration with standard curve-fitting software such as XLFit for the Excel spreadsheet program.

BACE1 [2] = target: T1, BACE1; test: Cellular Aβ-lowering assay a) (Aβ40 ELISA); details: cellular assay a): HEK293 cells expressing human APP695, Aβ40 in supernatant by ELISA after 18-20 hrs; read-out: BACE1 cell act. Aβ40 IC50
Description: a) Human HEK293 cells which are stably transfected with a vector expressing a cDNA of the human APP wt gene (APP695) were used to assess the potency of the compounds in a cellular assay. The cells were seeded in 96-well microtiter plates in cell culture medium (Iscove, plus 10% (v/v) fetal bovine serum, glutamine, penicillin/streptomycin) to about 80% confluence and the compounds were added at a 10× concentration in 1/10 volume of medium without FCS containing 8% DMSO (final concentration of DMSO was kept at 0.8% v/v). After 18-20 hrs incubation at 37° C. and 5% CO2 in a humidified incubator the culture supernatant was harvested for the determination of Aβ40 concentrations. 96 well ELISA plates (e.g., Nunc MaxiSorb) were coated with monoclonal antibody which specifically recognize the C-terminal end of Aβ40 (Brockhaus et al., NeuroReport 9, 1481-1486; 1998). After blocking of non-specific binding sites with e.g. 1% BSA and washing, the culture supernatants were added in suitable dilutions together with a horseradish peroxidase-coupled Aβ detection antibody (e.g., antibody 4G8, Senetek, Maryland Heights, Mo.) and incubated for 5 to 7 hrs. Subsequently the wells of the microtiter plate were washed extensively with Tris-buffered saline containing 0.05% Tween 20 and the assay was developed with tetramethylbenzidine/H2O2 in citric acid buffer. After stopping the reaction with one volume of 1N H2SO4 the reaction was measured in an ELISA reader at 450 nm wavelength. The concentrations of Aβ in the culture supernatants were calculated from a standard curve obtained with known amounts of pure Aβ peptide.

T1 sequence (P56817 46-501): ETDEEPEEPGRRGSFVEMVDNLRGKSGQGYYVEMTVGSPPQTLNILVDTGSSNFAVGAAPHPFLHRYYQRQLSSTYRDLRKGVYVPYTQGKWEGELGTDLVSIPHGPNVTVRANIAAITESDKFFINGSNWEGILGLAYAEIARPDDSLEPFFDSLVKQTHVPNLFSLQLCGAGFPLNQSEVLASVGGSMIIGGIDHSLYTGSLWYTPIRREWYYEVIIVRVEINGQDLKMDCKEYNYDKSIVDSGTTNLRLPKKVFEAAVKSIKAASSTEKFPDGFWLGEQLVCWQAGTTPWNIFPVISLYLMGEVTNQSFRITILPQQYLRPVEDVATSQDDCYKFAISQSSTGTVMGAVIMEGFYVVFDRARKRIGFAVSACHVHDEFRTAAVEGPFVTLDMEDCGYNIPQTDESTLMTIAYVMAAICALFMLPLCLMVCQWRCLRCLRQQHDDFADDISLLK

Row | pIC50 (BACE1 [1]) | pIC50 (BACE2) | pIC50 (BACE1 [2]) | Structure (SMILES)
1 |  | 6.83 | 8.00 | N#Cc1ccc(C(=O)Nc2ccc3c(c2)[C@@]2(CCS3)N=C(N)OCC2(F)F)nc1 [Example 43, (R)—N-(2-Amino-5,5-difluoro-5,6-dihydrospiro[[1,3]oxazine-4,4′-thiochroman]-6′-yl)-5-cyanopicolinamide]
2 | 5.29 |  |  | N#Cc1ccc(C(=O)Nc2ccc3c(c2)[C@@]2(C[C@@]4(CCCOC4)O3)N=C(N)OCC2(F)F)nc1 [Example 44, N-[(2′R,4R)-2-Amino-5,5-difluoro-5,5″,6,6″-tetrahydro-4″H-dispiro[1,3-oxazine-4,4′-chromene-2′,3″-pyran]-6′-yl]-5-cyanopyridine-2-carboxamide]
3 |  | 5.23 | 5.77 | NC1=N[C@@]2(CCOc3ccc(NC(=O)c4ncc(Cl)cc4Cl)cc32)C(F)(F)COC1 [Example 51, (R)—N-(3′-Amino-6′,6′-difluoro-6′,7′-dihydro-2′H-spiro[chroman-4,5′-[1,4]oxazepine]-6-yl)-3,5-dichloropicolinamido]
4 |  | 4.98 | 5.42 | NC1=N[C@@]2(CCOc3ccc(-c4cc(Cl)cc(Cl)c4)cc32)C(F)(F)COC1 [Example 55, (R)-6-(3,5-Dichlorophenyl)-6′,6′-difluoro-6′,7′-dihydro-2′H-spiro[chroman-4,5′-[1,4]oxazepin]-3′-amine]

Continued, compound first:

Row | Structure (SMILES) | pIC50 (BACE1 [1]) | pIC50 (BACE2) | pIC50 (BACE1 [2])
5 | N#Cc1cncc(-c2ccc3c(c2)[C@@]2(CC3)N=C(N)OCC2(F)F)c1 [Example 11, (R)-5-(2′-Amino-5′,5′-difluoro-2,3,5′,6′-tetrahydrospiro[indene-1,4′-[1,3]oxazine]-6-yl)nicotinonitrile] | 5.47 |  | 
6 | NC1=N[C@@]2(C[C@@]3(CCCOC3)Oc3ccc(-c4cncc(Cl)c4)cc32)C(F)(F)CO1 [Example 29, (2′R,4R)-6′-(5-Chloropyridin-3-yl)-5,5-difluoro-5,5″,6,6″-tetrahydro-4″H-dispiro[1,3-oxazine-4,4′-chromene-2′,3″-pyran]-2-amine formate] | 5.35 |  | 
7 | N#Cc1cccc(-c2ccc3c(c2)[C@@]2(C[C@@]4(CCCOC4)O3)N=C(N)OCC2(F)F)c1 [Example 30, 3-[(2′R,4R)-2-Amino-5,5-difluoro-5,5″,6,6″-tetrahydro-4″H-dispiro[1,3-oxazine-4,4′-chromene-2′,3″-pyran]-6′-yl]benzonitrile formate] | 5.18 |  | 
8 | NC1=N[C@@]2(C[C@]3(CCCOC3)Oc3ccc(-c4cncc(Cl)c4)cc32)C(F)(F)CO1 [Example 31, (2′S,4R)-6′-(5-Chloropyridin-3-yl)-5,5-difluoro-5,5″,6,6″-tetrahydro-4″H-dispiro[1,3-oxazine-4,4′-chromene-2′,3″-pyran]-2-amine formate] | 5.05 |  | 
